Measured values taken from patent publication US20090269796A1, “METHODS OF DETECTING AND TREATING MYOCARDIAL ISCHEMIA AND MYOCARDIAL INFARCTION” (THE GENERAL HOSPITAL CORPORATION, priority 2007, published 2009).

System: not listed separately
Assay: Simultaneous coronary sinus and peripheral plasma sampling after planned MI (13-patient subgroup), LC-MS/MS profiling
Format: in vivo, human
Conditions: elevated earlier in coronary sinus, FIG. 4 top panel
Experimental: Blood was drawn at baseline (just prior to the onset of the ablation) and at minutes, 1 hour, 2 hours, 4 hours and 24 hours following the onset of injury as depicted in FIG. 1. 13 of the 36 patients consented to the placement of a coronary sinus catheter during the ablation, allowing for the simultaneous sampling from coronary sinus and femoral catheters at the baseline, 10-minute and 1-hour time points. The coronary sinus catheter was subsequently removed prior to the patient leaving the catheterization suite.
Samples were obtained from femoral venous catheters during the procedure or, where indicated, from a catheter placed in the coronary sinus. Samples were collected in K2EDTA-treated tubes (Becton Dickinson). All blood samples were centrifuged at 2000×g for 10 minutes to pellet cellular elements. The supernatant plasma was then aliquoted and immediately frozen at −80° C. to minimize freeze-thaw degradation. Additional blood samples were sent to the clinical chemistry laboratory for evaluation of the standard cardiac markers creatine kinase (CK), CK-MB, and Troponin T (Roche Diagnostics).
The specificity of the findings described above was further examined by exploring the anatomic origin of the metabolic changes. […]
With O=P(O)(O)OCC(O)CO (stereo not drawn) [Glycerol-3-P, glycerol-3-phosphate] the “Time after injury until elevation evident in the periphery” value was 120 min. For O=C(O)CC(O)C(=O)O (stereo not drawn) [Malic Acid], the “Time after injury until elevation evident in the periphery” value was 120 min.

System: Neonatal rat cardiomyocytes
Assay: Hypoxia-induced apoptosis (annexin V) of cardiomyocytes pretreated with individual metabolites
Format: cell-based
Conditions: metabolite added 5 minutes before 3 hours hypoxia; lowest concentration screened; annexin V-positive cells; FIG. 6
Experimental: Neonatal rat cardiomyocytes were treated with individual metabolites previously identified using planned MI metabolomics. In the first, metabolites that are increased in the peripheral blood and/or the coronary sinus samples were prioritized. Neonatal cardiomyocytes were isolated from 1-day old rats, cultured for three days, and then challenged in a hypoxia chamber (<0.5% O2, 95% nitrogen and 5% CO2 at 37° C.) for 3 hours, as previously described.^18 Baseline apoptosis is typically ˜10%, which increases to ˜30% following hypoxic challenge, as assessed by FITC-conjugated annexin V staining. Metabolites at the indicated concentrations were added to experimental plates 5 minutes prior to the onset of hypoxia. Metabolites were examined at ˜2 fold reported blood concentrations (where available), as well as at one log increased concentration (see also Human Metabolomics Database, HMDB, at http://www.hmdb.ca). 30 minutes after reoxygenation, the number of annexin V-positive cells per five HPF was counted from n=3 culture plates. The data depicted represent the percent change in apoptosis relative to the hypoxia control for the lowest concentration of each metabolite screened. (*P<0.05 by unpaired student's t test). […] Accordingly, one would seek to inhibit the metabolite in question as part of treatment or prevention scheme.
Accordingly, one would seek to administer the metabolite in question as part of treatment or prevention scheme. Such metabolites include, according to FIG. 6, G3P, inosine, malonic acid, TMNO, and orotic acid. Alternatively, one could administer a compound that upregulates a pathway that results in the production of the metabolite in question.
For O=C(O)CC(=O)O [Malonic Acid], the “Mean % change in apoptosis vs. hypoxia control” value (“Mean % change” below) was “reduces cell death”. With O=C(O)CCC(=O)O [Succinic Acid] the “Mean % change” value was “potentiates cell death”. With O=C(O)c1cc(=O)[nH]c(=O)[nH]1 [Orotic Acid] the “Mean % change” value was “reduces cell death”. In the case of OC[C@H]1O[C@@H](n2cnc3c(O)ncnc32)[C@H](O)[C@@H]1O [Inosine], the “Mean % change” value is reported as “reduces cell death”. With C[N+](C)(C)[O-] [Trimethylamine-N-Oxide] the “Mean % change” value was “reduces cell death”. In the case of O=P(O)(O)OCC(O)CO (stereo not drawn) [Glycerol-3-P, glycerol-3-phosphate], the “Mean % change” value is reported as “reduces cell death”. In the case of NCCS(=O)(=O)O [Taurine], the “Mean % change” value is reported as “potentiates cell death”. In the case of O=c1[nH]cnc2nc[nH]c12 [Hypoxanthine], the “Mean % change” value is reported as “potentiates cell death”.

System: not listed separately
Assay: Metabolite changes in peripheral plasma after planned MI (alcohol septal ablation), LC-MS/MS profiling
Format: in vivo, human
Conditions: FIG. 3, lower panel
Text: A total of 36 patients undergoing planned MI using alcohol septal ablation for the treatment of symptomatic hypertrophic obstructive cardiomyopathy (HOCM) were included. Inclusion criteria for the cohort were: 1) primary HOCM; 2) septal thickness of 16 mm or greater; 3) resting outflow tract gradient of greater than 30 mmHg, or an inducible outflow tract gradient of at least 50 mm Hg; 4) symptoms refractory to optimal medical therapy; and 5) appropriate coronary anatomy. The most proximal accessible septal branch was instrumented using standard angioplasty guiding catheters and guidewires and 1.5 or 2.0 mm×9 mm Maverick™ balloon catheters. Radiographic and echocardiographic contrast injections confirmed proper selection of the septal branch and balloon catheter position. Ethanol was infused through the balloon catheter at 1 ml per minute. Additional injections in the same or other septal branches were administered as needed, causing cessation of blood flow to the isolated myocardium, and to reduce the gradient to <20 mmHg.^16 […]
The three HPLC columns were connected in parallel via an automated switching valve on a robotic sample loader (Leap Technologies) to a triple quadrupole mass spectrometer (AB4000Q, Applied Biosystem/Sciex), operated in electrospray ionization mode using a turbo ion spray LC/MS interface. […] A total of 210 known metabolites were monitored for each sample. […]
In the case of Nc1ccccc1C(=O)O [anthanilic acid], the “Kinetic pattern of change in peripheral plasma after planned MI” value is reported as “Later-appearing”. In the case of CN(CC(=O)O)C(=N)N [creatine], the “Kinetic pattern of change in peripheral plasma after planned MI” value is reported as “Later-appearing”.
